In US11173151B2, “Substituted triazole derivatives and uses thereof” (BAYER AKTIENGESELLSCHAFT, priority 2017, dated 2021):
pIC50: −log10 of the molar value.

How the values were obtained:
[1] = target: T1, human V1a receptor (Homo sapiens, UniProt P37288); assay: Cellular in vitro assay for determining vasopressin receptor activity, V1a receptor cell line (CHO, aequorin luminescence); assay type: cell-based; settings: for pIC50: CHO cell line transfected with human V1a receptor, [Arg]-vasopressin at EC50 concentration, read-out: IC50 hV1a; for ratio IC50 hV2/hV1a: selectivity ratio IC50 hV2 / IC50 hV1a
T1 construct: expressed in transfected cells; host or cells: CHO K1 (ATCC), also stably transfected with a modified aequorin
T1 sequence (P37288 whole entry): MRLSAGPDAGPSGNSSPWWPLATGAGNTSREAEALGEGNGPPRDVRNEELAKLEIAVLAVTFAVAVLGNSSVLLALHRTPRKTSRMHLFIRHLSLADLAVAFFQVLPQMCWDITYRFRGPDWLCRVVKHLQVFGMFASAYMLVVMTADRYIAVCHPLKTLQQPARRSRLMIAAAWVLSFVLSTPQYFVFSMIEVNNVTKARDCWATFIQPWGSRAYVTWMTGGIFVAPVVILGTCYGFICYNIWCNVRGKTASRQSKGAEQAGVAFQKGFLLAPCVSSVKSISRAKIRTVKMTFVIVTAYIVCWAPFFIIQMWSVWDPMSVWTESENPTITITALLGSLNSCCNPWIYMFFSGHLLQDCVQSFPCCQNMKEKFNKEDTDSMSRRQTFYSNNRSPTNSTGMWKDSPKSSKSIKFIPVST
Outline: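 Luminescence from reconstituted aequorin, reporting intracellular calcium release, was measured immediately after adding [Arg]-vasopressin at EC50 concentration to CHO K1 cells pretreated 10 minutes with graded compound concentrations. Inhibition gave IC50 values.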

[2] = target: T2, human V2 receptor (Homo sapiens, UniProt P30518); assay: Cellular in vitro assay for determining vasopressin receptor activity, V2 receptor cell line (CHO, CRE-luciferase); assay type: cell-based; settings: CHO cell line transfected with human V2 receptor; [Arg8]-vasopressin at EC50 concentration, 3 hours; read-out: IC50 hV2
T2 construct: expressed in transfected cells; host or cells: CHO K1 (ATCC) expressing firefly luciferase under a CRE-responsive promoter
T2 sequence (P30518 whole entry): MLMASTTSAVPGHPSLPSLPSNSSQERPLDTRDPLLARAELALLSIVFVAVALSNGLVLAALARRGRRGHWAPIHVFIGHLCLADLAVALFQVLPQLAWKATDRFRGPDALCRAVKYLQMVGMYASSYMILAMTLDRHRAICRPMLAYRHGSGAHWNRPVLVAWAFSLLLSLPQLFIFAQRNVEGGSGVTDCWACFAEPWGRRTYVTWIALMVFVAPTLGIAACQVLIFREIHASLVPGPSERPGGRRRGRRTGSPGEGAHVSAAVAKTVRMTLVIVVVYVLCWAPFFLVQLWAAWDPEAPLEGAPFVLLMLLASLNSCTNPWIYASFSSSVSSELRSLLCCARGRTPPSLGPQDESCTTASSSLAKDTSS

Structure (SMILES)	pIC50 [1]	ratio IC50 hV2/hV1a [1]	pIC50 [2]
CC1(C)CCN(C(=O)c2ccccc2-n2cnc(Cn3nc(-c4ccc(Cl)cc4)n(C[C@H](O)C(F)(F)F)c3=O)n2)CC1 [Example 277, 5-(4-Chlorophenyl)-2-[(1-{2-[(4,4-dimethylpiperidin-1-yl)carbonyl]phenyl}-1H-1,2,4-triazol-3-yl)methyl]-4-[(2S)-3,3,3-trifluoro-2-hydroxypropyl]-2,4-dihydro-3H-1,2,4-triazol-3-one]	8.28	339.6	5.74
O=C(c1ccccc1-n1cnc(Cn2nc(-c3ccc(Cl)cc3)n(C[C@H](O)C(F)(F)F)c2=O)n1)N1CCCCO1 [Example 278, 5-(4-Chlorophenyl)-2-({1-[2-(1,2-oxazinan-2-ylcarbonyl)phenyl]-1H-1,2,4-triazol-3-yl}methyl)-4-[(2S)-3,3,3-trifluoro-2-hydroxypropyl]-2,4-dihydro-3H-1,2,4-triazol-3-one]	8.80	253.1	6.39
O=C1CN(C(=O)c2ccccc2-n2cnc(Cn3nc(-c4ccc(Cl)cc4)n(C[C@H](O)C(F)(F)F)c3=O)n2)CN1 [Example 279, 5-(4-Chlorophenyl)-2-[(1-{2-[(4-oxoimidazolidin-1-yl)carbonyl]phenyl}-1H-1,2,4-triazol-3-yl)methyl]-4-[(2S)-3,3,3-trifluoro-2-hydroxypropyl]-2,4-dihydro-3H-1,2,4-triazol-3-one]	7.56	98.2	5.57
CC1(C)COCCN1C(=O)c1ccccc1-n1cnc(Cn2nc(-c3ccc(Cl)cc3)n(C[C@H](O)C(F)(F)F)c2=O)n1 [Example 281, 5-(4-Chlorophenyl)-2-[(1-{2-[(3,3-dimethylmorpholin-4-yl)carbonyl]phenyl}-1H-1,2,4-triazol-3-yl)methyl]-4-[(2S)-3,3,3-trifluoro-2-hydroxypropyl]-2,4-dihydro-3H-1,2,4-triazol-3-one]	8.95	2500.0	5.55
O=C(c1ccccc1-n1cnc(Cn2nc(-c3ccc(Cl)cc3)n(C[C@H](O)C(F)(F)F)c2=O)n1)N1CCCOCC1 [Example 284, 5-(4-Chlorophenyl)-2-({1-[2-(1,4-oxazepan-4-ylcarbonyl)phenyl]-1H-1,2,4-triazol-3-yl}methyl)-4-[(2S)-3,3,3-trifluoro-2-hydroxypropyl]-2,4-dihydro-3H-1,2,4-triazol-3-one]	8.70	485.0	6.01
O=C(c1ccccc1-n1cnc(Cn2nc(-c3ccc(Cl)cc3)n(C[C@H](O)C(F)(F)F)c2=O)n1)N1CCCO1 [Example 285, 5-(4-Chlorophenyl)-2-({1-[2-(1,2-oxazolidin-2-ylcarbonyl)phenyl]-1H-1,2,4-triazol-3-yl}methyl)-4-[(2S)-3,3,3-trifluoro-2-hydroxypropyl]-2,4-dihydro-3H-1,2,4-triazol-3-one]	8.72	231.6	6.36
CN(C)C1CN(C(=O)c2ccccc2-n2cnc(Cn3nc(-c4ccc(Cl)cc4)n(C[C@H](O)C(F)(F)F)c3=O)n2)C1 [Example 286, 5-(4-Chlorophenyl)-2-{[1-(2-{[3-(dimethylamino)azetidin-1-yl]carbonyl}phenyl)-1H-1,2,4-triazol-3-yl]methyl}-4-[(2S)-3,3,3-trifluoro-2-hydroxypropyl]-2,4-dihydro-3H-1,2,4-triazol-3-one]	7.84	172.4	5.60
CC1(C)CN(C(=O)c2ccccc2-n2cnc(Cn3nc(-c4ccc(Cl)cc4)n(C[C@H](O)C(F)(F)F)c3=O)n2)CCO1 [Example 287, 5-(4-Chlorophenyl)-2-[(1-{2-[(2,2-dimethylmorpholin-4-yl)carbonyl]phenyl}-1H-1,2,4-triazol-3-yl)methyl]-4-[(2S)-3,3,3-trifluoro-2-hydroxypropyl]-2,4-dihydro-3H-1,2,4-triazol-3-one]	8.24	386.0	5.66
